Assay results taken from the supplement of paper PMC13380429.

Columns and labels:
Conditions in all cases: 72 h
Calu-3 [1] = assay: drug sensitivity score (DSS) for viability; higher = more toxic; extreme values may be limits of the assay
Caco-2 [2] = assay: as above
HepG2 [3] = assay: as above
Calu-3 [4] = assay: relative viability EC50 (midpoint between 100% and the lowest measured viability); higher = less toxic
Caco-2 [5] = assay: as above
HepG2 [6] = assay: as above
Calu-3 [7] = assay: cell viability relative to DMSO; higher = less toxic
Caco-2 [8] = assay: as above
HepG2 [9] = assay: as above
U2OS [10] = assay: drug sensitivity score (DSS) for viability; higher = more toxic; extreme values may be limits of the assay
Vero E6 [11] = assay: as above
U2OS [12] = assay: relative viability EC50 (midpoint between 100% and the lowest measured viability); higher = less toxic
U2OS [13] = assay: cell viability relative to DMSO; higher = less toxic
Vero E6 [14] = assay: as above
Vero E6 [15] = assay: relative viability EC50 (midpoint between 100% and the lowest measured viability); higher = less toxic

Row | Compound | drug sensitivity score (Calu-3 [1]) | drug sensitivity score (Caco-2 [2]) | drug sensitivity score (HepG2 [3]) | relative viability EC50 (Calu-3 [4]) | relative viability EC50 (Caco-2 [5]) | relative viability EC50 (HepG2 [6]) | cell viability (Calu-3 [7]; 1 nM) | cell viability (Calu-3 [7]; 10 nM) | cell viability (Calu-3 [7]; 100 nM) | cell viability (Calu-3 [7]; 1000 nM) | cell viability (Calu-3 [7]; 10000 nM) | cell viability (Caco-2 [8]; 1 nM) | cell viability (Caco-2 [8]; 10 nM) | cell viability (Caco-2 [8]; 100 nM) | cell viability (Caco-2 [8]; 1000 nM) | cell viability (Caco-2 [8]; 10000 nM) | cell viability (HepG2 [9]; 1 nM) | cell viability (HepG2 [9]; 10 nM) | cell viability (HepG2 [9]; 100 nM) | cell viability (HepG2 [9]; 1000 nM) | cell viability (HepG2 [9]; 10000 nM) | drug sensitivity score (U2OS [10]) | drug sensitivity score (Vero E6 [11]) | relative viability EC50 (U2OS [12]) | cell viability (U2OS [13]; 1 nM) | cell viability (U2OS [13]; 10 nM) | cell viability (U2OS [13]; 100 nM) | cell viability (U2OS [13]; 1000 nM) | cell viability (U2OS [13]; 10000 nM) | cell viability (Vero E6 [14]; 1 nM) | cell viability (Vero E6 [14]; 10 nM) | cell viability (Vero E6 [14]; 100 nM) | cell viability (Vero E6 [14]; 1000 nM) | cell viability (Vero E6 [14]; 10000 nM) | relative viability EC50 (Vero E6 [15])
1 | CN1C[C@@H]2CN(c3ccc(-c4ccccc4)nn3)C[C@@H]2C1 | 0 | 0 | 0 | > 10 µM | > 10 µM | > 10 µM | 90.3% | 100% | 97.6% | 98.6% | 91.6% | 105% | 104% | 101% | 103% | 99.5% | 104% | 97.3% | 110% | 98.9% | 96% |  |  |  |  |  |  |  |  |  |  |  |  |  | 
2 | CNc1cc2c(Nc3cccc(Br)c3)ncnc2cn1 | 9.5 | 4.4 | 1.6 | 0.47 µM | 1.55 µM |  | 101% | 98.4% | 93.9% | 53.5% | 37.7% | 102% | 92.5% | 91.2% | 84.5% | 49.7% | 93.8% | 105% | 95.9% | 100% | 64.9% | 0 | 6.2 | > 10 µM | 99.4% | 97.6% | 98.3% | 92.2% | 89.6% | 92.4% | 97.3% | 88.4% | 72.4% | 53.1% | 
3 | COc1ccc(-c2ccc3c(N4CCOCC4)nc(N4C[C@@H](C)O[C@@H](C)C4)nc3n2)cc1CO | 10.1 |  | 7.2 |  |  |  |  |  |  |  |  |  |  |  |  |  |  |  |  |  |  | 5.1 | 4.6 |  |  |  |  |  |  |  |  |  |  |  | 
4 | NCCc1ccccn1 [2-pyridylethylamine] | 0 | 0 | 0 | > 10 µM | > 10 µM | > 10 µM | 98.8% | 88.4% | 93.4% | 105% | 101% | 110% | 96.4% | 107% | 101% | 108% | 113% | 104% | 113% | 113% | 93.6% |  | 0 |  |  |  |  |  |  | 95.2% | 105% | 105% | 102% | 96.6% | > 10 µM
5 | c1ccc(N2CCN(Cc3nc4ccccc4[nH]3)CC2)nc1 [ABT-724] | 0 | 0 | 0 | > 10 µM | > 10 µM | > 10 µM | 93.5% | 105% | 101% | 104% | 114% | 91.7% | 99.8% | 97.8% | 100% | 94% | 92.4% | 100% | 99.2% | 95.7% | 106% | 0 |  | > 10 µM | 98.8% | 103% | 98.7% | 104% | 98.6% |  |  |  |  |  | 
6 | C1Cc2[nH]nc(-c3nn[nH]n3)c2C1 [MK-0354] | 0 | 0 | 0 | > 10 µM | > 10 µM | > 10 µM | 99.8% | 92.7% | 91.6% | 112% | 101% | 97% | 91.1% | 95.2% | 88.9% | 102% | 102% | 98% | 95.6% | 105% | 95.4% | 0 |  | > 10 µM | 101% | 96.2% | 103% | 96.7% | 103% |  |  |  |  |  | 
7 | COc1cc(S(C)(=O)=O)ccc1Nc1nc2ccc(-c3ccc(NC(=O)[C@H](C)c4ccc(F)cc4)cc3)cn2n1 [Mps1-IN-5] | 0 | 2.9 | 7.9 | > 10 µM | > 10 µM | 0.508 µM | 101% | 94.6% | 94.6% | 101% | 91.8% | 97.7% | 96.4% | 103% | 78.2% | 87.4% | 106% | 108% | 106% | 56.2% | 49.2% | 6.7 | 6.6 |  | 99.9% | 99.6% | 94.2% | 66.7% | 70.6% | 101% | 97% | 95.2% | 66.4% | 71.5% | 
8 | CC#CC(=O)N1CC[C@@H](n2c(=O)n(-c3ccc(Oc4ccccc4)cc3)c3c(N)ncnc32)C1 [ONO-4059] | 14.8 | 4.4 | 0 | 0.121 µM |  | > 10 µM | 91.2% | 96.7% | 73.6% | 36% | 41.3% | 97.6% | 87% | 93.9% | 73.8% | 73.7% | 96.7% | 99.3% | 89.6% | 102% | 101% | 0 | 3.9 | > 10 µM | 101% | 91.4% | 103% | 92.5% | 93.6% | 89.5% | 97.4% | 90.7% | 80.2% | 68.2% | 
9 | Nc1cc(F)ccc1NC(=O)/C=C/c1cnn(C/C=C/c2ccccc2)c1 [RGFP966] | 4.1 | 1.4 | 4.4 |  | > 10 µM |  | 99.3% | 106% | 89.2% | 87.6% | 51.4% | 100% | 98.9% | 92.6% | 91.2% | 76.7% | 93.2% | 105% | 96.4% | 87.2% | 52.4% | 2.2 | 2.2 |  | 92.9% | 104% | 92.2% | 89.5% | 68.6% | 104% | 106% | 105% | 95.9% | 66.2% | 
10 | CN[C@@H](C)C(=O)N[C@H]1CCCC[C@H]2CC[C@@H](C(=O)N[C@@H](c3ccccc3)c3cn(CCCCc4ccc(CCCCn5cc([C@@H](NC(=O)[C@@H]6CC[C@@H]7CCCC[C@H](NC(=O)[C@H](C)NC)C(=O)N76)c6ccccc6)nn5)cc4)nn3)N2C1=O [SM-164] | 0.9 | 2.7 | 0 | > 10 µM | > 10 µM | > 10 µM | 103% | 90% | 99% | 89.2% | 81.3% | 105% | 109% | 85.5% | 84% | 98.4% | 106% | 104% | 98.6% | 96.9% | 90.1% | 0 |  | > 10 µM | 99.5% | 108% | 102% | 98.8% | 99.7% |  |  |  |  |  | 
11 | COc1cc2c(NC3CCN(CC4CCCCC4)CC3)nc(N3CCCN(C(C)C)CC3)nc2cc1OCCCN1CCCCC1 [UNC0631] | 4.3 | 1.6 | 6.1 | 3.36 µM | > 10 µM | 2.89 µM | 103% | 97.2% | 104% | 103% | 18.9% | 97.7% | 104% | 103% | 84.4% | 83.2% | 104% | 111% | 100% | 96.3% | 0.2% | 1.2 | 3.8 |  | 102% | 102% | 102% | 98.7% | 74.2% | 93.4% | 97.1% | 88.6% | 93% | 50.9% | 
12 | Cc1ccc(-c2nc3ccc(C)cn3c2CC(=O)N(C)C)cc1 [ZOLPIDEM] | 0 | 0 | 0 | > 10 µM | > 10 µM | > 10 µM | 102% | 109% | 97% | 95.9% | 105% | 95.5% | 97% | 117% | 95.1% | 98.1% | 110% | 97.7% | 101% | 97.1% | 99.6% | 0 |  | > 10 µM | 101% | 104% | 101% | 100% | 96.2% |  |  |  |  |  | 
13 | Cc1cccc(C)c1NC(=O)c1ccc(N)cc1 [ameltolide] | 0 | 0.1 | 0 | > 10 µM | > 10 µM | > 10 µM | 95.7% | 92.7% | 83% | 92.5% | 97.1% | 89.3% | 94.4% | 102% | 110% | 85.4% | 99.6% | 89.3% | 86.2% | 76% | 98.7% | 0 |  | > 10 µM | 97% | 103% | 94.6% | 99.2% | 94.2% |  |  |  |  |  | 
14 | CCC(C)(CN(C)C)OC(=O)c1ccccc1 (configuration not stated) [amyleine] | 0 | 0 | 0.1 | > 10 µM | > 10 µM | > 10 µM | 106% | 95.6% | 101% | 102% | 114% | 115% | 88.1% | 97.3% | 101% | 92.7% | 106% | 103% | 109% | 98.1% | 88.7% |  | 0 |  |  |  |  |  |  | 108% | 99.8% | 99% | 104% | 100% | > 10 µM
15 | COC(=O)[C@H](Cc1ccccc1)NC(=O)[C@@H](N)CC(=O)O [aspartame] | 0 | 0 | 0 | > 10 µM | > 10 µM | > 10 µM | 91.2% | 100% | 92.8% | 89.4% | 96.5% | 97.8% | 99.1% | 101% | 99.6% | 94% | 98.3% | 91.6% | 98.2% | 94.3% | 102% | 0 |  | > 10 µM | 99.8% | 99.7% | 98.6% | 103% | 101% |  |  |  |  |  | 
16 | Cn1c(=O)c2c(ncn2C)n(C)c1=O [caffeine] | 0 |  | 0 |  |  |  |  |  |  |  |  |  |  |  |  |  |  |  |  |  |  | 0 | 0 |  |  |  |  |  |  |  |  |  |  |  | 
17 | O=C(O)c1cc(=O)c2ccccc2o1 [chromocarb] | 0 | 0 | 0 | > 10 µM | > 10 µM | > 10 µM | 81.8% | 93.2% | 86.8% | 103% | 93.7% | 99.8% | 109% | 104% | 110% | 108% | 114% | 106% | 114% | 98.5% | 110% |  |  |  |  |  |  |  |  |  |  |  |  |  | 
